Experimental data from ChEMBL document CHEMBL4837239, “Identification of Thieno[3,2-d]pyrimidine Derivatives as Dual Inhibitors of Focal Adhesion Kinase and FMS-like Tyrosine Kinase 3” (J Med Chem, 2021).
Activity calls are given as the source filed them. The rule behind the calls is not given here.

How the values were obtained:
[1] = test system: Colon carcinoma cell; test: Antiproliferative activity against human colon cancer cells assessed as growth inhibition measured after 72 hrs by MTT assay; format: functional, cell-based
[2] = test system: HCT-116; test: Induction of apoptosis in human HCT-116 cells assessed as cleaved PARP at 0.1 to 10 uM incubated for 24 hrs by Western blot analysis; format: functional, cell-based; conditions: dose 0.1-10 µM
[3] = target: Mitogen-activated protein kinase; ERK1/ERK2 (Homo sapiens) (UniProt P27361+P28482); test: Inhibition of ERK1/2 autophosphorylation in human HCT-116 cells at 0.5 to 5 uM incubated for 24 hrs by Western blot analysis; format: cell-based; conditions: dose 0.5-5 µM
Sequence of Mitogen-activated protein kinase; ERK1/ERK2 (Homo sapiens) (P27361 whole entry, looked up): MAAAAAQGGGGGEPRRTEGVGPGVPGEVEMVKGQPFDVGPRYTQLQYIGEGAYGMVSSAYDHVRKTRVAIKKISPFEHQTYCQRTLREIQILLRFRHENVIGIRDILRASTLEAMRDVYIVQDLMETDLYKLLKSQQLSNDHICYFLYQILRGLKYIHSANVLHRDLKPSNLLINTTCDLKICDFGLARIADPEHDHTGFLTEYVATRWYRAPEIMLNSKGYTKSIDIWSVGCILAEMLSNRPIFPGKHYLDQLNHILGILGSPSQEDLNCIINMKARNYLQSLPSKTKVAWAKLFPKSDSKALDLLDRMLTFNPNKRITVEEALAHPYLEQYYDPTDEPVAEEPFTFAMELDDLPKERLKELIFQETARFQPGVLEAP
Sequence of Mitogen-activated protein kinase; ERK1/ERK2 (Homo sapiens) (P28482 whole entry, looked up): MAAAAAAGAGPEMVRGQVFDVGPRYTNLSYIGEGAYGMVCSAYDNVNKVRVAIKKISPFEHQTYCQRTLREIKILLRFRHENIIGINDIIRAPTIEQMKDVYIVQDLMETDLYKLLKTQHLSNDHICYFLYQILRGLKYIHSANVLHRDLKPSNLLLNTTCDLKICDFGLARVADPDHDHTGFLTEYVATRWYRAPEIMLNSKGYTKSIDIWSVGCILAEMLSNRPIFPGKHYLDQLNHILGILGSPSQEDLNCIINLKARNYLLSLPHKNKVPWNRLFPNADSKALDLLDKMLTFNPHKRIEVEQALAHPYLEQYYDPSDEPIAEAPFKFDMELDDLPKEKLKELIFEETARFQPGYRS

[4] = Oral bioavailability in mouse at 10 mg/kg; format: ADME, organism-based; conditions: in vivo
[5] = target: Cyclin-dependent kinase 4 (Homo sapiens, UniProt P11802); test: Inhibition of CDK4 (unknown origin) at 0.1 uM
[6] = target: CYP2C19 (Homo sapiens, UniProt P33261); test: Inhibition of CYP2C19 (unknown origin) at 10 uM relative to control; format: ADME
[7] = target: Epithelial discoidin domain-containing receptor 1 (Homo sapiens, UniProt Q08345); test: Inhibition of DDR1 (unknown origin)
[8] = target: T1, Focal adhesion kinase 1 (Homo sapiens, UniProt Q05397); test: Inhibition of FAK autophosphorylation at Y925 in human MDA-MB-231 cells at 5 uM incubated for 24 hrs by Western blot analysis; format: cell-based
T1 sequence (Q05397 2-1052 limits assumed): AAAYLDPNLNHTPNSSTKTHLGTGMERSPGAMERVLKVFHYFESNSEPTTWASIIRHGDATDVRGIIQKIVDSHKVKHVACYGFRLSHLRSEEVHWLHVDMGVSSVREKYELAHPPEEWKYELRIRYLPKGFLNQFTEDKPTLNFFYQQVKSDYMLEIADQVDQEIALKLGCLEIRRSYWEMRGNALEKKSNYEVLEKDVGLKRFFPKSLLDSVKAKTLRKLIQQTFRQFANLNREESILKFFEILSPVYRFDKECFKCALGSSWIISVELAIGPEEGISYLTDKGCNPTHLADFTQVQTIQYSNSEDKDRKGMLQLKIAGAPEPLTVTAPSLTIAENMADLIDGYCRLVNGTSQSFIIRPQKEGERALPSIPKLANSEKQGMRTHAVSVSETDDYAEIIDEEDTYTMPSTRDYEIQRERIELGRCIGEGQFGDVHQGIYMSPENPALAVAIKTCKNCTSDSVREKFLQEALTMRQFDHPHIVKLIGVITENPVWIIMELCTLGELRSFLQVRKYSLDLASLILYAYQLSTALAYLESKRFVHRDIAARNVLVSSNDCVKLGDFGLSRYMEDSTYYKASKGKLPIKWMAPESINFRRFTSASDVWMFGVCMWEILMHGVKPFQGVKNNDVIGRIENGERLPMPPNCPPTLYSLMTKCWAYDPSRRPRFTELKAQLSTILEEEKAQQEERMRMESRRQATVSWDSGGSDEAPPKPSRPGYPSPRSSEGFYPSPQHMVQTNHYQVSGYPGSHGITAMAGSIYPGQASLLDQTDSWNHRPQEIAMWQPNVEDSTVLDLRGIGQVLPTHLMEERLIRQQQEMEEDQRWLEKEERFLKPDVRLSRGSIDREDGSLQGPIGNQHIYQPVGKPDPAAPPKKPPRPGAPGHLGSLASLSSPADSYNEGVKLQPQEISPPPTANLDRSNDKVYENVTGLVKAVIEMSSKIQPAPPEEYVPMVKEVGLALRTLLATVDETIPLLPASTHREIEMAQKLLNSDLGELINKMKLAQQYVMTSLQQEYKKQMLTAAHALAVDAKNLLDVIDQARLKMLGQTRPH

[9] = target: Ephrin type-B receptor 1 (Homo sapiens) (UniProt P54762); test: Inhibition of EphB1 (unknown origin) at 0.1 uM
[10] = test system: MDA-MB-231; test: Growth inhibition of anchorage-Independent human MDA-MB-231 cells assessed as decrease in number of colonies at 10 uM incubated for 72 hrs by MTT assay relative to control; format: functional
[11] = test system: BaF3; test: Antiproliferative activity against mouse Ba/F3 cells assessed as growth inhibition measured after 72 hrs by CellTiter-Glo assay; format: functional; conditions: Mus musculus, BaF3
[12] = Antiproliferative activity against human A375P cells assessed as growth inhibition measured after 72 hrs by CellTiter-Glo assay; format: functional; conditions: Homo sapiens, A375P
[13] = organism: Homo sapiens; test: Inhibition of FLT3 D835Y mutant (unknown origin) at 0.1 uM
[14] = target: CYP3A4 (Homo sapiens, UniProt P08684); test: Inhibition of CYP3A4 (unknown origin) at 10 uM relative to control; format: ADME
[15] = test system: MDA-MB-231; test: In vivo antitumor activity against human MDA-MB-231 cells xenografted in Balb/c mouse assessed as reduction in tumor weight at 40 to 70 mg/kg, po once daily measured for 16 days; format: functional, organism-based; conditions: dose 40-70 mg/kg, time 16.0 day
[16] = test system: MDA-MB-231; test: Growth inhibition of anchorage-Independent human MDA-MB-231 cells assessed as decrease in number of colonies incubated for 72 hrs by MTT assay; format: functional, cell-based; conditions: dose 1-10 µM
[17] = test system: BaF3; test: Antiproliferative activity against mouse Ba/F3 cells harbouring FLT3 D835Y mutant assessed as growth inhibition measured after 72 hrs by CellTiter-Glo assay; format: functional; conditions: Mus musculus, BaF3
[18] = target: CYP2C9 (Homo sapiens, UniProt P11712); test: Inhibition of CYP2C9 (unknown origin) at 10 uM relative to control; format: ADME
Sequence of CYP2C9 (P11712 whole entry): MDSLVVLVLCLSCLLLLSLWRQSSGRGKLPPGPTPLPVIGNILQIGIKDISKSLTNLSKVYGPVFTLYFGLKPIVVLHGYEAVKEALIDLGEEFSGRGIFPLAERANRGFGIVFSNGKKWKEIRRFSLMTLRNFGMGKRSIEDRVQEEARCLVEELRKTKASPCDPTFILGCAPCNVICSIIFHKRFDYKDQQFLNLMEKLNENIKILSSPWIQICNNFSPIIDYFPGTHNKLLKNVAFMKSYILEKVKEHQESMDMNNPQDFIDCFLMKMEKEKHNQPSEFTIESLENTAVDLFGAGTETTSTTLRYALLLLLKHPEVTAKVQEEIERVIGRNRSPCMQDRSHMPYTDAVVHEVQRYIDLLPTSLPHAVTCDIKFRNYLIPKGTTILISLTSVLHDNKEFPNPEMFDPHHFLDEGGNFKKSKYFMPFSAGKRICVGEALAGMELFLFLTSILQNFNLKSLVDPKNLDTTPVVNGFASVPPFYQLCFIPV

[19] = target: T1, Focal adhesion kinase 1; test: Inhibition of FAK (unknown origin) at 0.1 uM
[20] = Toxicity in NSG orthotopic mouse xenografted with human MDA-MB-231 cells assessed as change in body weight at 40 to 70 mg/kg, po once daily measured for 2 weeks; format: organism-based; conditions: in vivo, 336 h, dose 40-70 mg/kg
[21] = test system: MDA-MB-231; test: Antimetastatic activity against human MDA-MB-231 cells expressing firefly luciferase xenografted NSG orthotopic mouse model assessed as reduction in luminescence intensity at liver at 70 mg/kg, po once daily measured for 2 weeks; format: functional, organism-based
[22] = test system: Prostatic carcinoma cell; test: Antiproliferative activity against human prostate cancer cells assessed as growth inhibition measured after 72 hrs by MTT assay; format: functional, cell-based
[23] = target: T1, Focal adhesion kinase 1; test: Inhibition of FAK autophosphorylation at Y397 in human HCT-116 cells at 5 uM incubated for 24 hrs by Western blot analysis; format: cell-based
[24] = target: Casein kinase II subunit alpha (Homo sapiens, UniProt P68400); test: Inhibition of CK2alpha1 (unknown origin)
[25] = test system: MV4-11; test: In vivo antitumor activity against human MV4-11 cells xenografted in mouse assessed as tumor growth inhibition at 20 mg/kg, po; format: functional; conditions: MV4-11, po
[26] = target: Tyrosine-protein kinase JAK1 (Homo sapiens, UniProt P23458); test: Inhibition of JAK1 (unknown origin)
Sequence of Tyrosine-protein kinase JAK1 (P23458 whole entry): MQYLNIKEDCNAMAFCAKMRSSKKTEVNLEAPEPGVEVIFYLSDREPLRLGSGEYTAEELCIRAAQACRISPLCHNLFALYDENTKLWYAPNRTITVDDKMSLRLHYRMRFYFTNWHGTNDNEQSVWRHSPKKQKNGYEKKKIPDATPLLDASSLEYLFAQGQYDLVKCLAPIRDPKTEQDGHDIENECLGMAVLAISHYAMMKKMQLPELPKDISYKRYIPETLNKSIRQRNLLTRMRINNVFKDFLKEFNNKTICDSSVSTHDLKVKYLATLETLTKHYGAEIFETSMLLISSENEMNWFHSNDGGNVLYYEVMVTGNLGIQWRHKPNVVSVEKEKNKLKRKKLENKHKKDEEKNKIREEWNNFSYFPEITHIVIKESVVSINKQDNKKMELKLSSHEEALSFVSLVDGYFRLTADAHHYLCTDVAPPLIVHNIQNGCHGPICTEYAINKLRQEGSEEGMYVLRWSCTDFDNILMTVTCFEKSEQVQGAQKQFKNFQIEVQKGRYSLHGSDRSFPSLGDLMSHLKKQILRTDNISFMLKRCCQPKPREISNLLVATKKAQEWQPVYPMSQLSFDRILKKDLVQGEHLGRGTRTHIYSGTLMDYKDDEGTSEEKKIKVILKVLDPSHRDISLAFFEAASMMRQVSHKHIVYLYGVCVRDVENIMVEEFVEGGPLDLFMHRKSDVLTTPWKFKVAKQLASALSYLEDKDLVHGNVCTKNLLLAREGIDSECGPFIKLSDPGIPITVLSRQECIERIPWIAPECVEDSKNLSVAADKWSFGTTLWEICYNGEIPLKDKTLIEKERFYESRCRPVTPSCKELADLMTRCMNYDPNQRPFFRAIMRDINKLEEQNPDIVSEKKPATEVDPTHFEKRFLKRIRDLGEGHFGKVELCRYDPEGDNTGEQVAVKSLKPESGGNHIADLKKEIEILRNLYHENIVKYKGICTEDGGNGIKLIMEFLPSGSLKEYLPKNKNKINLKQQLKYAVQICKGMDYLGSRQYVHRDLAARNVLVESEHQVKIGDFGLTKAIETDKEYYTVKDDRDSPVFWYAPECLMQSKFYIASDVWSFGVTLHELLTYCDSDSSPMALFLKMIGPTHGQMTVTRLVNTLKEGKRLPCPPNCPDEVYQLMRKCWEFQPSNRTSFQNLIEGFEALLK

[27] = target: Tyrosine-protein kinase Lck (Homo sapiens, UniProt P06239); test: Inhibition of Lck (unknown origin)
Sequence of Tyrosine-protein kinase Lck (P06239 whole entry): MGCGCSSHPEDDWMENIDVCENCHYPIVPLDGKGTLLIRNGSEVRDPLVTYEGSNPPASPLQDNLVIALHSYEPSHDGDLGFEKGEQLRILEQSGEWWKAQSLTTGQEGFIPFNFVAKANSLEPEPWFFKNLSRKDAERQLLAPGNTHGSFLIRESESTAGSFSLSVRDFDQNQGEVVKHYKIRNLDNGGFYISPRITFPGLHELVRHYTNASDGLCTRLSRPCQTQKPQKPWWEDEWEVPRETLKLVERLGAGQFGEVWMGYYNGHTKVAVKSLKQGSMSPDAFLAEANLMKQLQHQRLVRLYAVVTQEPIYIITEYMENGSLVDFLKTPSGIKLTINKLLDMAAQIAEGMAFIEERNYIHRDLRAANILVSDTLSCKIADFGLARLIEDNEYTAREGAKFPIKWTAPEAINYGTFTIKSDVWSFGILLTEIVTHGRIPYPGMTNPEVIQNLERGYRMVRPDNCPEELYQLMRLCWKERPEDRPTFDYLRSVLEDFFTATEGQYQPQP

[28] = target: T1, Focal adhesion kinase 1; test: Inhibition of FAK autophosphorylation at Y397 in human MDA-MB-231 cells at 5 uM incubated for 24 hrs by Western blot analysis; format: cell-based
[29] = target: Tyrosine-protein kinase JAK3 (Homo sapiens, UniProt P52333); test: Inhibition of JAK3 (unknown origin)
Sequence of Tyrosine-protein kinase JAK3 (P52333 whole entry): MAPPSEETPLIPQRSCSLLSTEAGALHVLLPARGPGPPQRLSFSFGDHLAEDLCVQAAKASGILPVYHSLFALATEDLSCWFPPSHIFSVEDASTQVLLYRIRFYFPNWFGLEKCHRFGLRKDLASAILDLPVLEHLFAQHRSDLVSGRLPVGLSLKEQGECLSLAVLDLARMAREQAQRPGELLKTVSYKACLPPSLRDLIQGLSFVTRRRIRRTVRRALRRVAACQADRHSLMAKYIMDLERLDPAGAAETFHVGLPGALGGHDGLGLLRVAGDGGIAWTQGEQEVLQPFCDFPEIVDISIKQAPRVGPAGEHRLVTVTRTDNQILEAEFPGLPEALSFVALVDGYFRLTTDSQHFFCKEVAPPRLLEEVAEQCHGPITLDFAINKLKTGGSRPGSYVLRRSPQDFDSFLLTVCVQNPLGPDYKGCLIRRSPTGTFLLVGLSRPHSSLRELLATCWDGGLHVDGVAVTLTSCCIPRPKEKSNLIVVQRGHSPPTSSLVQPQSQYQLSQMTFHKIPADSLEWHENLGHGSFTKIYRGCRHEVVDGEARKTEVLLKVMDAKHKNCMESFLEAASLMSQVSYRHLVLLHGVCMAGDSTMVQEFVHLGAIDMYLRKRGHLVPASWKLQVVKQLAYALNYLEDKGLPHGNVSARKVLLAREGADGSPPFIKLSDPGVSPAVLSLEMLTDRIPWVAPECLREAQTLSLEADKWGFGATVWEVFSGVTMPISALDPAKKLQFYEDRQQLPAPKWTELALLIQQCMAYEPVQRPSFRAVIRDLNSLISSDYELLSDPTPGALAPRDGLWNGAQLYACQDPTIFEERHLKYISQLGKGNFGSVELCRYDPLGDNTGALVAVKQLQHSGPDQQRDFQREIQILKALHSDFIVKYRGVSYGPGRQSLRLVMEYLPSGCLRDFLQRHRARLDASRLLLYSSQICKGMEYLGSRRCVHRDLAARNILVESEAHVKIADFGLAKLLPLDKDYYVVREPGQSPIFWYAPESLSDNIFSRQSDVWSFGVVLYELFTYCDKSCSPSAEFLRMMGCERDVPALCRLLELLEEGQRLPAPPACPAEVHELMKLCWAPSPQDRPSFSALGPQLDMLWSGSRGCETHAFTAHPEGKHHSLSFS

SMILES: CCN1CCN(c2ccc(Nc3ncc4scc(-c5cccc(NS(C)(=O)=O)c5)c4n3)cc2)CC1
- Activity [1]: Active
- Activity [2]: Active
- inhibition [3]: inactive
- bioavailability [4]: 15.8%
- inhibition [5]: 92.7%
- inhibition at 10 µM [6]: 90.6%
- IC50 [7]: 4.4 nM
- inhibition [8]: Active
- inhibition [9]: 91.1%
- inhibition at 10 µM [10]: 75%
- GI50 [11]: 428 nM
- GI50 [12]: 370 nM
- inhibition [13]: 98.4%
- inhibition at 10 µM [14]: 71.9%
- Activity [15]: Active
- growth inhibition (GI) [16]: Dose-Dependent Effect
- GI50 [17]: 0.4 nM
- inhibition at 10 µM [18]: 93.6%
- inhibition [19]: 95.6%
- Activity [20]: Non-Toxic
- Activity [21]: Active
- Activity [22]: Active
- inhibition [23]: Active
- IC50 [24]: 13.9 nM
- inhibition in vivo at 20 mg/kg [25]: 65%
- IC50 [26]: 1.8 nM
- IC50 [27]: 7.8 nM
- inhibition [28]: Active
- IC50 [29]: 3.2 nM
